From patent publication US11325938B2, “CD73 inhibitors” (ORIC Pharmaceuticals, Inc., priority 2018, dated 2022)

Biological target: CD73 (Homo sapiens (Human), UniProt P21589)
Assay: Biochemical assay: inhibition of CD73 activity (AMP hydrolysis, Malachite Green readout)
Settings: CD73 0.3208 nM, AMP 15 μM, 25 mM Tris-HCl pH 7.4, RT, absorbance 620 nm
Procedure, shortened: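 Human CD73 (320 pM final) preincubated 15 min at RT with compounds (10-point ½-log titration from 100 μM, duplicates) in 25 mM Tris-HCl pH 7.4, 5 mM MgCl2, 0.01% Brij-35, 0.01% BSA. 15 μM AMP added, 10 min at RT; released phosphate read by Malachite Green absorbance; IC50 determined.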

Sequence of CD73 (P21589 27-574): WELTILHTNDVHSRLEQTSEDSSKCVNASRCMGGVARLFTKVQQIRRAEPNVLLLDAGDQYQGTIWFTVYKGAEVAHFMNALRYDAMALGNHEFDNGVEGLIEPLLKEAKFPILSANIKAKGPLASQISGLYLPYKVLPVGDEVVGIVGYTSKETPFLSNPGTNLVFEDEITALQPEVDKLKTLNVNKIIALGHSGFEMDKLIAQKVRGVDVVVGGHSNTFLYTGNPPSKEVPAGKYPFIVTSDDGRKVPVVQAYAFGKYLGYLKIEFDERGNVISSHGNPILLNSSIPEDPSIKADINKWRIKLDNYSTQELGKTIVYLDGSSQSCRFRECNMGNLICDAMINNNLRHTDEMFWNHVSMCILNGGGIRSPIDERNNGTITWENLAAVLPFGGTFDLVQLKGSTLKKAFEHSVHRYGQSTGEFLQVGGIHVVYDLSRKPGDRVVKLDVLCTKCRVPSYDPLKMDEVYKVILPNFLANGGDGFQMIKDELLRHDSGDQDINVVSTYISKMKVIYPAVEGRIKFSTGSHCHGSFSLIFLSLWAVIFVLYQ

| Structure (SMILES) | IC50 [µM] |
| --- | --- |
| O=P(O)(O)[C@@](CO)(Cc1nn[nH]n1)OC[C@H]1O[C@@H](n2ncc3c(NC4CCCC4)nc(Cl)nc32)[C@H](O)[C@@H]1O [Example 104, ((R)-2-(((2R,3S,4R,5R)-5-(6-chloro-4-(cyclopentylamino)-1H-pyrazolo[3,4-d]pyrimidin-1-yl)-3,4-dihydroxytetrahydrofuran-2-yl)methoxy)-1-hydroxy-3-(2H-tetrazol-5-yl)propan-2-yl)phosphonic acid] | ≤ 0.1 |
| COCC(OC[C@H]1O[C@@H](n2cnc3c(NC4CCCC4)nc(Cl)nc32)[C@H](O)[C@@H]1O)P(=O)(O)O (stereo partly drawn) [Example 160, (1-(((2R,3S,4R,5R)-5-(2-chloro-6-(cyclopentylamino)-9H-purin-9-yl)-3,4-dihydroxytetrahydrofuran-2-yl)methoxy)-2-methoxyethyl)phosphonic acid] | ≤ 0.1 |
| CC(C)(O)C#Cc1nc(NC2CCCC2)c2cnn([C@@H]3O[C@H](COC(C)(CO)P(=O)(O)O)[C@@H](O)[C@H]3O)c2n1 (mixture of isomers) [Example 192, rac-(2-(((2R,3S,4R,5R)-5-(4-(cyclopentylamino)-6-(3-hydroxy-3-methylbut-1-yn-1-yl)-1H-pyrazolo[3,4-d]pyrimidin-1-yl)-3,4-dihydroxytetrahydrofuran-2-yl)methoxy)-1-hydroxypropan-2-yl)phosphonic acid] | ≤ 0.1 |
| C[C@@](Cc1nn[nH]n1)(OC[C@H]1O[C@@H](n2ncc3c(NC4CCCC4)nc(Cl)nc32)[C@H](O)[C@@H]1O)P(=O)(O)O [Example 119, ((R)-2-(((2R,3S,4R,5R)-5-(6-chloro-4-(cyclopentylamino)-1H-pyrazolo[3,4-d]pyrimidin-1-yl)-3,4-dihydroxytetrahydrofuran-2-yl)methoxy)-1-(2H-tetrazol-5-yl)propan-2-yl)phosphonic acid] | ≤ 0.1 |
| O=P(O)(O)COC[C@H]1O[C@@H](n2nnc3c(NCc4ccccc4Cl)cc(Cl)nc32)[C@H](O)[C@@H]1O [Example 26, ((((2R,3S,4R,5R)-5-(5-chloro-7-((2-chlorobenzyl)amino)-3H-[1,2,3]triazolo[4,5-b]pyridin-3-yl)-3,4-dihydroxytetrahydrofuran-2-yl)methoxy)methyl)phosphonic acid] | ≤ 0.1 |
| C[C@](CO)(OC[C@H]1O[C@@H](n2ncc3c(N[C@@H]4CCc5ccc(F)cc54)nc(Cl)nc32)[C@H](O)[C@@H]1O)P(=O)(O)O [Example 108, ((S)-2-(((2R,3S,4R,5R)-5-(6-chloro-4-(((R)-6-fluoro-2,3-dihydroxy-1H-inden-1-yl)amino)-1H-pyrazolo[3,4-d]pyrimidin-1-yl)-3,4-dihydroxytetrahydrofuran-2-yl)methoxy)-1-hydroxypropan-2-yl)phosphonic acid] | ≤ 0.1 |
| COCC(C)(OC[C@H]1O[C@@H](n2ncc3c(NC4CCCC4)cc(Cl)nc32)[C@H](O)[C@@H]1O)P(=O)(O)O (stereo partly drawn) [Example 111, (2-(((2R,3S,4R,5R)-5-(6-chloro-4-(cyclopentylamino)-1H-pyrazolo[3,4-b]pyridin-1-yl)-3,4-dihydroxytetrahydrofuran-2-yl)methoxy)-1-methoxypropan-2-yl)phosphonic acid] | ≤ 0.1 |
| O=P(O)(O)C(CO)(Cc1ncccn1)OC[C@H]1O[C@@H](n2ncc3c(NC4CCCC4)nc(Cl)nc32)[C@H](O)[C@@H]1O (mixture of isomers) [Example 168, rac-(2-(((2R,3S,4R,5R)-5-(6-chloro-4-(cyclopentylamino)-1H-pyrazolo[3,4-d]pyrimidin-1-yl)-3,4-dihydroxytetrahydrofuran-2-yl)methoxy)-1-hydroxy-3-(pyrimidin-2-yl)propan-2-yl)phosphonic acid] | ≤ 0.1 |
| O=P(O)(O)C(CO)(CO)OC[C@H]1O[C@@H](n2ncc3c(NC4CCCC4)cc(Cl)nc32)[C@H](O)[C@@H]1O (racemic) [Example 200, rac-(2-(((2R,3S,4R,5R)-5-(6-chloro-4-(cyclopentylamino)-1H-pyrazolo[3,4-b]pyridin-1-yl)-3,4-dihydroxytetrahydrofuran-2-yl)methoxy)-1,3-dihydroxypropan-2-yl)phosphonic acid] | ≤ 0.1 |
| O=P(O)(O)C(CO)(CO)OC[C@H]1O[C@@H](n2ncc3c(N[C@@H]4CCCc5ccccc54)nc(Cl)nc32)[C@H](O)[C@@H]1O (racemic) [Example 189, rac-(2-(((2R,3S,4R,5R)-5-(6-chloro-4-(((R)-1,2,3,4-tetrahydronaphthalen-1-yl)amino)-1H-pyrazolo[3,4-d]pyrimidin-1-yl)-3,4-dihydroxytetrahydrofuran-2-yl)methoxy)-1,3-dihydroxypropan-2-yl)phosphonic acid] | ≤ 0.1 |
| CC1(Nc2nc(Cl)nc3c2cnn3[C@@H]2O[C@H](CO[C@@](C)(CO)P(=O)(O)O)[C@@H](O)[C@H]2O)CCCC1 [Example 105, ((R)-2-(((2R,3S,4R,5R)-5-(6-chloro-4-((1-methylcyclopentyl)amino)-1H-pyrazolo[3,4-d]pyrimidin-1-yl)-3,4-dihydroxytetrahydrofuran-2-yl)methoxy)-1-hydroxypropan-2-yl)phosphonic acid] | ≤ 0.1 |
| O=P(O)(O)C(CO)(CO)OC[C@H]1O[C@@H](n2ncc3c(NC4CCC4)nc(Cl)nc32)[C@H](O)[C@@H]1O [Example 116, (2-(((2R,3S,4R,5R)-5-(6-chloro-4-(cyclobutylamino)-1H-pyrazolo[3,4-d]pyrimidin-1-yl)-3,4-dihydroxytetrahydrofuran-2-yl)methoxy)-1,3-dihydroxypropan-2-yl)phosphonic acid] | ≤ 0.1 |
| O=P(O)(O)C(CO)OC[C@H]1O[C@@H](n2ncc3c(N[C@H]4CCc5ccccc54)nc(Cl)nc32)[C@H](O)[C@@H]1O (stereo partly drawn) [Example 39, (1-(((2R,3S,4R,5R)-5-(6-chloro-4-(((S)-2,3-dihydro-1H-inden-1-yl)amino)-1H-pyrazolo[3,4-d]pyrimidin-1-yl)-3,4-dihydroxytetrahydrofuran-2-yl)methoxy)-2-hydroxyethyl)phosphonic acid] | ≤ 0.1 |
| CC(CO)(OC[C@H]1O[C@@H](n2ncc3c(NC4CCC4)nc(Cl)nc32)[C@H](O)[C@@H]1O)P(=O)(O)O (stereo partly drawn) [Example 130, (2-(((2R,3S,4R,5R)-5-(6-chloro-4-(cyclobutylamino)-1H-pyrazolo[3,4-d]pyrimidin-1-yl)-3,4-dihydroxytetrahydrofuran-2-yl)methoxy)-1-hydroxypropan-2-yl)phosphonic acid] | ≤ 0.1 |
| O=P(O)(O)C(CO)OC[C@H]1O[C@@H](n2ncc3c(NC4CCCC4)nc(Cl)nc32)[C@H](O)[C@@H]1O (stereo partly drawn) [Example 13, (1-(((2R,3S,4R,5R)-5-(6-chloro-4-(cyclopentylamino)-1H-pyrazolo[3,4-d]pyrimidin-1-yl)-3,4-dihydroxytetrahydrofuran-2-yl)methxoy)-2-hydroxyethyl)phosphonic acid] | ≤ 0.1 |
| COCC(COC)(OC[C@H]1O[C@@H](n2ncc3c(NCC4CC4)nc(Cl)nc32)[C@H](O)[C@@H]1O)P(=O)(O)O [Example 125, (2-(((2R,3S,4R,5R)-5-(6-chloro-4-((cyclopropylmethyl)amino)-1H-pyrazolo[3,4-d]pyrimidin-1-yl)-3,4-dihydroxytetrahydrofuran-2-yl)methoxy)-1,3-dimethoxypropan-2-yl)phosphonic acid] | ≤ 0.1 |
| COCCOc1nc(NC2CCCC2)c2cnn([C@@H]3O[C@H](COC(C)(CO)P(=O)(O)O)[C@@H](O)[C@H]3O)c2n1 (stereo partly drawn) [Example 145, (2-(((2R,3S,4R,5R)-5-(4-(cyclopentylamino)-6-(2-methoxyethoxy)-1H-pyrazolo[3,4-d]pyrimidin-1-yl)-3,4-dihydroxytetrahydrofuran-2-yl)methoxy)-1-hydroxypropan-2-yl)phosphonic acid] | ≤ 0.1 |
| CC(COCCO)(OC[C@H]1O[C@@H](n2ncc3c(NC4CCCC4)nc(Cl)nc32)[C@H](O)[C@@H]1O)P(=O)(O)O (stereo partly drawn) [Example 85, (2-(((2R,3S,4R,5R)-5-(6-Chloro-4-(cyclopentylamino)-1H-pyrazolo[3,4-d]pyrimidin-1-yl)-3,4-dihydroxytetrahydrofuran-2-yl)methoxy)-1-(2-hydroxyethoxy)propan-2-yl)phosphonic acid] | ≤ 0.1 |
| C[C@](CO)(OC[C@H]1O[C@@H](n2ncc3c(N[C@@H]4CC[C@H]5CCC[C@H]54)nc(Cl)nc32)[C@H](O)[C@@H]1O)P(=O)(O)O (racemic) [Example 173, rac-((R)-2-(((2S,3R,4S,5S)-5-(6-chloro-4-(((1S,3aS,6aS)-octahydropentalen-1-yl)amino)-1H-pyrazolo[3,4-d]pyrimidin-1-yl)-3,4-dihydroxytetrahydrofuran-2-yl)methoxy)-1-hydroxypropan-2-yl)phosphonic acid] | ≤ 0.1 |
| COC[C@@](C)(OC[C@H]1O[C@@H](n2nnc3c(NC4CCCC4)nc(Cl)nc32)[C@H](O)[C@@H]1O)P(=O)(O)O [Example 109, ((S)-2-(((2R,3S,4R,5R)-5-(5-chloro-7-(cyclopentylamino)-3H-[1,2,3]triazolo[4,5-d]pyrimidin-3-yl)-3,4-dihydroxytetrahydrofuran-2-yl)methoxy)-1-methoxypropan-2-yl)phosphonic acid] | ≤ 0.1 |
| COC[C@@H](OC[C@H]1O[C@@H](n2ncc3c(NC4CCCC4)nc(Cl)nc32)[C@H](O)[C@@H]1O)P(=O)(O)O [Example 64, ((S)-1-(((2R,3S,4R,5R)-5-(6-chloro-4-(cyclopentylamino)-1H-pyrazolo[3,4-d]pyrimidin-1-yl)-3,4-dihydroxytetrahydrofuran-2-yl)methoxy)-2-methoxyethyl)phosphonic acid] | ≤ 0.1 |
| CC(CO)(OC[C@H]1O[C@@H](n2ncc3c(N[C@@H]4CC[C@H]5CCC[C@H]54)nc(Cl)nc32)[C@H](O)[C@@H]1O)P(=O)(O)O (stereo partly drawn) [Example 133, (2-(((2R,3S,4R,5R)-5-(6-chloro-4-(((1R,3aR,6aR)-octahydropentalen-1-yl)amino)-1H-pyrazolo[3,4-d]pyrimidin-1-yl)-3,4-dihydroxytetrahydrofuran-2-yl)methoxy)-1-hydroxypropan-2-yl)phosphonic aci] | ≤ 0.1 |
